From patent US11306101B2 (Celgene Corporation, priority 2019, dated 2022) come the findings set out here.

This test concerns the target T1, CK1α (Homo sapiens, UniProt P48729+Q96SW2).
T1 construct: expressed in transfected cells
Briefly: CK1α ePL degradation assay in MDS-L cells. It counts as cell-based. To be noted: MDS-L cells expressing ePL-tagged CK1α; for DC50: concentration giving 50% CK1α degradation vs DMSO control; for Y: lowest measured CK1α level normalized to DMSO control. In outline: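 Degradation efficiency is reported as Y value, the minimum CK1α level (percent of DMSO control) across doses. Readout used InCELL Hunter luminescent detection after MDS-L cell exposure at 37° C for stated times, doses 10 μM down to 0.0005 μM in 3-fold steps.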

T1 sequence (P48729 whole entry): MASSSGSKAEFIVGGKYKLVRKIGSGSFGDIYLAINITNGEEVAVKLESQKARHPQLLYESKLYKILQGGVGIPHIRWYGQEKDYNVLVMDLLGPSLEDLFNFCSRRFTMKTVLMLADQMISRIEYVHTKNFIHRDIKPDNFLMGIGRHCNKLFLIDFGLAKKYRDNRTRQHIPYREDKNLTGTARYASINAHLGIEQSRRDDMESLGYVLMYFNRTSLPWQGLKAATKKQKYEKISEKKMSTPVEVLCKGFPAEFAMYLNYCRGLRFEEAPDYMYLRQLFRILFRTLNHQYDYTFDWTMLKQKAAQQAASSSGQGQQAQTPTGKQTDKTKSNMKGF
T1 sequence (Q96SW2 whole entry): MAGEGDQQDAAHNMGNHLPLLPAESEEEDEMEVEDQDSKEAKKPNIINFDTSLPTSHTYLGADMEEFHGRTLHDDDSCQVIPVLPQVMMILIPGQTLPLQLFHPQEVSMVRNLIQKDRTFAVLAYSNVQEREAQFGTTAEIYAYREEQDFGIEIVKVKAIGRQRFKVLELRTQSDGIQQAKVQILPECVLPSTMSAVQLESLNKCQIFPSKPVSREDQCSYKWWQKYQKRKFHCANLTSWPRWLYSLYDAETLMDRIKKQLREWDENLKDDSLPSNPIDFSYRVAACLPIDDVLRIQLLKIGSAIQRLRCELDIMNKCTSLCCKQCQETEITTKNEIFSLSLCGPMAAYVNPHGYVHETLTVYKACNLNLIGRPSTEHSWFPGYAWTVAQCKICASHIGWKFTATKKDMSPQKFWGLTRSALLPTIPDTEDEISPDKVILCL
T1 sequence (Q16531 whole entry partner): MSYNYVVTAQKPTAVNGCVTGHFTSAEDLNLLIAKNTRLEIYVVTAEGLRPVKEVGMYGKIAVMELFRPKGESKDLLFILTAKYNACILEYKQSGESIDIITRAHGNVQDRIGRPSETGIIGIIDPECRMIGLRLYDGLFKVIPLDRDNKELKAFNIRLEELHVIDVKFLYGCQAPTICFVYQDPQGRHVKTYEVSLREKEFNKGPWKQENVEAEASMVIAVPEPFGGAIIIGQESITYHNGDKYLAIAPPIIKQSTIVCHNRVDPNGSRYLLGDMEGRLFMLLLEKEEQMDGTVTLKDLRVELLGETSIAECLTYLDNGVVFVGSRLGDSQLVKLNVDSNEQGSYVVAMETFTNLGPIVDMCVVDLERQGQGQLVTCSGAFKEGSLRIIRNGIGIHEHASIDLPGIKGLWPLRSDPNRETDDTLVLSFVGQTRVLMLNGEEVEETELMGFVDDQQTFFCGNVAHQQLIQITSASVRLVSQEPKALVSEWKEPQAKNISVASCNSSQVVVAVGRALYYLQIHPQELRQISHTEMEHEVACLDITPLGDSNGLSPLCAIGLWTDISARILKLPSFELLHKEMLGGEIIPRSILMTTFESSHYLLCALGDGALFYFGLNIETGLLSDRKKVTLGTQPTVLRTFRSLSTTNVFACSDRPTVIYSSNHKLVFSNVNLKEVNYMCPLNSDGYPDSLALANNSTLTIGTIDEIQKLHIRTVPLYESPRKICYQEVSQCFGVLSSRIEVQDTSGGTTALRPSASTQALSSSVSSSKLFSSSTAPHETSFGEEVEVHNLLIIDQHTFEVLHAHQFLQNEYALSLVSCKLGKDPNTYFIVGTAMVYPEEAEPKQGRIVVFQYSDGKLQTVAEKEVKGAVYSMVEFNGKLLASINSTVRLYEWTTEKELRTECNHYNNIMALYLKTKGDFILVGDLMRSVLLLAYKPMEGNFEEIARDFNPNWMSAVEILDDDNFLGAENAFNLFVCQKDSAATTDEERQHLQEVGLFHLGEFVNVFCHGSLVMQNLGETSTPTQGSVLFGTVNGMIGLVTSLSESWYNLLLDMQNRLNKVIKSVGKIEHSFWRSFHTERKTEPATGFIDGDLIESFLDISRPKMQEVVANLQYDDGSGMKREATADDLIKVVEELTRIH

`O=C1CCC(N2Cc3cc(C(=O)N[C@H](CC(F)(F)F)c4ccccc4F)ccc3C2=O)C(=O)N1` (stereo partly drawn) [Example 195, 2-(2,6-dioxopiperidin-3-yl)-1-oxo-N-((R)-3,3,3-trifluoro-1-(2-fluorophenyl)propyl)isoindoline-5-carboxamide]: the DC50 (usually the concentration giving 50% degradation) is less than 100 nM and the Y entry is “* (a Y value (shown as *) of 0<Y≤20%)”.
As for `Cc1ccccc1[C@@H](CC(F)(F)F)NC(=O)c1ccc2c(c1)CN(C1CCC(=O)NC1=O)C2=O` (stereo partly drawn) [Example 196, 2-(2,6-dioxopiperidin-3-yl)-1-oxo-N-((R)-3,3,3-trifluoro-1-o-tolylpropyl)isoindoline-5-carboxamide], the half-maximal degradation concentration (DC50) is less than 100 nM and the Y result is reported as “* (a Y value (shown as *) of 0<Y≤20%)”.
As for `O=C1CCC(N2Cc3cc(C(=O)N[C@@H](c4ccccc4F)C(F)(F)F)ccc3C2=O)C(=O)N1` (stereo partly drawn) [Example 197, 2-(2,6-dioxopiperidin-3-yl)-1-oxo-N-((S)-2,2,2-trifluoro-1-(2-fluorophenyl)ethyl)isoindoline-5-carboxamide], the DC50 lay within 500 to 1000 nM and the Y entry was “*** (a Y value (shown as***) of 35%<Y<50%)”.
With `CN(C)Cc1ccc([C@@H](NC(=O)c2ccc3c(c2)CN(C2CCC(=O)NC2=O)C3=O)C(F)(F)F)c(Cl)c1` (stereo partly drawn) [Example 198, N-((R)-1-(2-chloro-4-((dimethylamino)methyl)phenyl)-2,2,2-trifluoroethyl)-2-(2,6-dioxopiperidin-3-yl)-1-oxoisoindoline-5-carboxamide], the DC50 is less than 100 nM and the Y entry is reported as “* (a Y value (shown as *) of 0<Y≤20%)”.
Taken in the same sequence, the figures for `Cc1cccnc1[C@@H](NC(=O)c1ccc2c(c1)CN(C1CCC(=O)NC1=O)C2=O)C(F)(F)F` (stereo partly drawn) [Example 199, 2-(2,6-dioxopiperidin-3-yl)-1-oxo-N-((R)-2,2,2-trifluoro-1-(3-methylpyridin-2-yl)ethyl)isoindoline-5-carboxamide] were less than 100 nM and “* (a Y value (shown as *) of 0<Y≤20%)”.
The corresponding values for `COc1cccnc1[C@@H](NC(=O)c1ccc2c(c1)CN(C1CCC(=O)NC1=O)C2=O)C(F)(F)F` (stereo partly drawn) [Example 200, 2-(2,6-dioxopiperidin-3-yl)-1-oxo-N-((R)-2,2,2-trifluoro-1-(3-methoxypyridin-2-yl)ethyl)isoindoline-5-carboxamide] are less than 100 nM and “* (a Y value (shown as *) of 0<Y≤20%)”.
Consider `O=C1CCC(N2Cc3cc(C(=O)N[C@H](c4cccc(N5CCOCC5)c4)C(F)(F)F)ccc3C2=O)C(=O)N1` (stereo partly drawn) [Example 201, 2-(2,6-dioxopiperidin-3-yl)-1-oxo-N-((R)-2,2,2-trifluoro-1-(3-morpholinophenyl)ethyl)isoindoline-5-carboxamide], for which the 50% degradation concentration (DC50) was less than 100 nM and the Y result is on record as “* (a Y value (shown as *) of 0<Y≤20%)”.
For the compound `CN(C)Cc1cnc([C@@H](NC(=O)c2ccc3c(c2)CN(C2CCC(=O)NC2=O)C3=O)C(F)(F)F)c(Cl)c1` (stereo partly drawn) [Example 202, N-((R)-1-(3-chloro-5-((dimethylamino)methyl)pyridin-2-yl)-2,2,2-trifluoroethyl)-2-(2,6-dioxopiperidin-3-yl)-1-oxoisoindoline-5-carboxamide], the DC50 is less than 100 nM and the Y entry was “* (a Y value (shown as *) of 0<Y≤20%)”.
The corresponding values for `O=C1CCC(N2Cc3cc(C(=O)N[C@H](c4c(F)cc(F)cc4Cl)C(F)(F)F)ccc3C2=O)C(=O)N1` (stereo partly drawn) [Example 203, N-((R)-1-(2-chloro-4,6-difluorophenyl)-2,2,2-trifluoroethyl)-2-(2,6-dioxopiperidin-3-yl)-1-oxoisoindoline-5-carboxamide] are less than 100 nM and “* (a Y value (shown as *) of 0<Y≤20%)”.
The corresponding values for `O=C1CCC(N2Cc3cc(C(=O)N[C@H](c4ccc(N5CCOCC5)cc4)C(F)(F)F)ccc3C2=O)C(=O)N1` (stereo partly drawn) [Example 204, 2-(2,6-dioxopiperidin-3-yl)-1-oxo-N-((R)-2,2,2-trifluoro-1-(4-morpholinophenyl)ethyl)isoindoline-5-carboxamide] are less than 100 nM and “* (a Y value (shown as *) of 0<Y≤20%)”.
Regarding `O=C1CCC(N2Cc3cc(C(=O)N[C@H](c4ccccc4N4CCOCC4)C(F)(F)F)ccc3C2=O)C(=O)N1` (stereo partly drawn) [Example 205, 2-(2,6-dioxopiperidin-3-yl)-1-oxo-N-((R)-2,2,2-trifluoro-1-(2-morpholinophenyl)ethyl)isoindoline-5-carboxamide], the 50% degradation concentration (DC50) is less than 100 nM and the Y result is reported as “* (a Y value (shown as *) of 0<Y≤20%)”.
Taken in the same sequence, the figures for `CN1CCN(c2ccccc2[C@@H](NC(=O)c2ccc3c(c2)CN(C2CCC(=O)NC2=O)C3=O)C(F)(F)F)CC1` (stereo partly drawn) [Example 206, 2-(2,6-dioxopiperidin-3-yl)-1-oxo-N-((R)-2,2,2-trifluoro-1-(2-(4-methylpiperazin-1-yl)phenyl)ethyl)isoindoline-5-carboxamide] were less than 100 nM and “* (a Y value (shown as *) of 0<Y≤20%)”.
On to `O=C1CC[C@H](N2Cc3cc(C(=O)N[C@H](c4ncc(Cl)cc4Cl)C(F)(F)F)ccc3C2=O)C(=O)N1` [Example 207, N-((R)-1-(3,5-dichloropyridin-2-yl)-2,2,2-trifluoroethyl)-2-((S)-2,6-dioxopiperidin-3-yl)-1-oxoisoindoline-5-carboxamide], for which the DC50 was less than 100 nM and the Y result is reported as “* (a Y value (shown as *) of 0<Y≤20%)”.
Turning to `CN1CCN(c2ccc([C@@H](NC(=O)c3ccc4c(c3)CN(C3CCC(=O)NC3=O)C4=O)C(F)(F)F)cc2)CC1` (stereo partly drawn) [Example 208, 2-(2,6-dioxopiperidin-3-yl)-1-oxo-N-((R)-2,2,2-trifluoro-1-(4-(4-methylpiperazin-1-yl)phenyl)ethyl)isoindoline-5-carboxamide], the 50% degradation concentration (DC50) is less than 100 nM and the Y result is given as “* (a Y value (shown as *) of 0<Y≤20%)”.
The corresponding values for `CN1CCN(c2cccc([C@@H](NC(=O)c3ccc4c(c3)CN(C3CCC(=O)NC3=O)C4=O)C(F)(F)F)c2)CC1` (stereo partly drawn) [Example 209, 2-(2,6-dioxopiperidin-3-yl)-1-oxo-N-((R)-2,2,2-trifluoro-1-(3-(4-methylpiperazin-1-yl)phenyl)ethyl)isoindoline-5-carboxamide] are 100 to 500 nM and “** (a Y value (shown as**) of 20%<Y≤35%)”.
